Assay results reported in US20240018154A1, “NEW INDAZOLE DERIVATIVES” (Hoffmann-La Roche Inc., priority 2020, published 2024).
Counter-ions that a name gives are not always drawn.

Target: T1, EGFR LRCS (BaF3-LRCS cell line) (Homo sapiens, UniProt P00533, C797S/L858R)
T1 construct: host or cells: BaF3 (BaF3-LRCS engineered line, kept under puromycin)
Test: HTRF Phospho EGFR LRCS assay (cellular)
Type: cell-based
Conditions: BaF3-LRCS cells, 4 hours incubation with compound, Phospho-EGFR HTRF readout
Procedure: HTRF Phospho EGFR LRCS Assay (Cellular)
BaF3-LRCS cell line were obtained from Crownbio (San Diego, CA, USA). Cells were maintained at 37° C., 5% CO2 in RPMI ATCC (Gibco 31870)+2 mM Glutamine+0.5 μg/ml Puromycin supplemented with 10% fetal bovine serum (FBS) (Gibco).
Cells are transferred as above to Greiner Bio-One, Nr. 784-08 micro-titerplate at 20000 cells/well in 12.5 μl of growth medium/well after the plates had been pre-filled with 12.5 nl of DMSO solutions of the to be tested compounds (in dose response) or DMSO only. After spinning the plates at 300×g for 30 seconds the cells were incubated for 4 hours at 37 C, 5% CO2, 95% humidity. The cells were lysed by adding to the compound mix 4 μl/well of the supplemented lysis buffer (Cis-bio, Phospho-EGFR HTRF kit, 64EG1PEH), followed by incubation for 30 min at room temperature with shaking (400 rpm). The plates were then frozen and stored overnight at −80° C. On the next day and after thawing the plates, 4 μl of a mixture of anti-Phospho-EGFR Cryptate and of anti-Phospho-EGFR-d2 antibody solutions prepared in the supplied detection buffer was added to each well. The lidded plates were then incubated for 4 h at room temperature before reading the fluorescence emission at 616 and 665 nm using an Envision reader (Perkin Elmer). Data was analyzed in similar fashion as above using the normalized ratio of the 665 to 616 signals multiplied by 10000.

T1 sequence (P00533 25-1210 C797S/L858R): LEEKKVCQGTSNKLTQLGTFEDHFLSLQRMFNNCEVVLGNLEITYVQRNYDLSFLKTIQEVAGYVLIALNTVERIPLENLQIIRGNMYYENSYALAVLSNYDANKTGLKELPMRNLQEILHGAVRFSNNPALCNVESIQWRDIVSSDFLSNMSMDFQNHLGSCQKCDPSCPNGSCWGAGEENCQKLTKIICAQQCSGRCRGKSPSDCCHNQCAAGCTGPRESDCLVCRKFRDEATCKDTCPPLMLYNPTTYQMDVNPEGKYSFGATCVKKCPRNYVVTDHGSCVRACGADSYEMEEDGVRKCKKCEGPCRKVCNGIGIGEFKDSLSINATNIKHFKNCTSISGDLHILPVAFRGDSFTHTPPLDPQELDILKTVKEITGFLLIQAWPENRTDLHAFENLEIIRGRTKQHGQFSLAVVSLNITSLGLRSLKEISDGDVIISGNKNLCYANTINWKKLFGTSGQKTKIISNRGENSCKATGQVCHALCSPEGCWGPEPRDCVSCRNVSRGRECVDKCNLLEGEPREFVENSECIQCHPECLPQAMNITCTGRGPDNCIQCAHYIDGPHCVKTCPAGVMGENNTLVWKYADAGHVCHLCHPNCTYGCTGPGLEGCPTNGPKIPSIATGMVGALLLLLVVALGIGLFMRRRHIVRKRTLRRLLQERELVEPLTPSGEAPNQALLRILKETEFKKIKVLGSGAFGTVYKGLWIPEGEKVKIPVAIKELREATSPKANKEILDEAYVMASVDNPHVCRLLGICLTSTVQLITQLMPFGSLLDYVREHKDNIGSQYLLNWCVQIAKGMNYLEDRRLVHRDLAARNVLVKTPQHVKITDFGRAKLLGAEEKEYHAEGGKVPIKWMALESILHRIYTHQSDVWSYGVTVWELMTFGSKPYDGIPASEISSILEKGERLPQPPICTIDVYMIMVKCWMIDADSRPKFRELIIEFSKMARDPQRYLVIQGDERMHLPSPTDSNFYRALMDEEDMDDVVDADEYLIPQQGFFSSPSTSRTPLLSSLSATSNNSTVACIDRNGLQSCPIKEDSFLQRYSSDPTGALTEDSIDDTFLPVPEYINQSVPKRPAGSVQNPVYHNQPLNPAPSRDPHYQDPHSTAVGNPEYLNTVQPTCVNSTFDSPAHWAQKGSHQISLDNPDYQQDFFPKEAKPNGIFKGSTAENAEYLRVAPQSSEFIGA

Row | IC50 | Structure (SMILES)
1 | 0.016 µM | Cc1c(-c2ccc(N3CCC(S(C)(=O)=O)CC3)cc2)cc(C(F)F)c2cn(C(C(=O)Nc3nccs3)c3ncn4c3C[C@@H](F)C4)nc12 (stereo partly drawn) [Example 16, 2-[4-(Difluoromethyl)-7-methyl-6-[4-(4-methylsulfonyl-1-piperidyl)phenyl]indazol-2-yl]-2-[(6R)-6-fluoro-6,7-dihydro-5H-pyrrolo[1,2-c]imidazol-1-yl]-N-thiazol-2-yl-acetamide]
2 | 0.016 µM | Cc1c(-c2ccc(N3CC(CN4CCC(CO)CC4)C3)cc2)cc(C(F)F)c2cn(C(C(=O)Nc3nccs3)c3ncn4c3C[C@@H](F)C4)nc12 (stereo partly drawn) [Example 19, 2-(4-(Difluoromethyl)-6-(4-(3-((4-(hydroxymethyl)piperidin-1-yl)methyl)azetidin-1-yl)phenyl)-7-methyl-211-indazol-2-yl)-2-((R)-6-fluoro-6,7-dihydro-5H-pyrrolo[1,2-c]imidazol-1-yl)-N-(thiazol-2-yl)acetamide]
3 | 0.021 µM | Cc1c(-c2ccc(C3CCN(CC(C)F)CC3)cc2)cc(C(F)F)c2cn(C(C(=O)Nc3nccs3)c3ncn4c3C[C@@H](F)C4)nc12 (stereo partly drawn) [Example 23, 2-[4-(Difluoromethyl)-6-[4-[1-(2-fluoropropyl)-4-piperidyl]phenyl]-7-methyl-indazol-2-yl]-2-[(6R)-6-fluoro-6,7-dihydro-5H-pyrrolo[1,2-c]imidazol-1-yl]-N-thiazol-2-yl-acetamide]
4 | 0.016 µM | Cc1c(-c2ccc(CCN3CCC(C(C)O)CC3)cc2)cc(C(F)F)c2cn(C(C(=O)Nc3nccs3)c3ncn4c3C[C@@H](F)C4)nc12 (stereo partly drawn) [Example 14, 2-[4-(Difluoromethyl)-6-[4-[2-[4-(1-hydroxyethyl)-1-piperidyl]ethyl]phenyl]-7-methyl-indazol-2-yl]-2-[(6R)-6-fluoro-6,7-dihydro-5H-pyrrolo[1,2-c]imidazol-1-yl]-N-thiazol-2-yl-acetamide]

Continued, molecule first:

Row | Structure (SMILES) | IC50
5 | Cc1c(-c2ccc(C3CC(CN4CCC(CO)CC4)C3)cc2)cc(C(F)F)c2cn(C(C(=O)Nc3nccs3)c3ncn4c3C[C@@H](F)C4)nc12 (stereo partly drawn) [Example 15, 2-[4-(Difluoromethyl)-6-[4-[3-[[4-(hydroxymethyl)-1-piperidyl]methyl]cyclobutyl]phenyl]-7-methyl-indazol-2-yl]-2-[(6R)-6-fluoro-6,7-dihydro-5H-pyrrolo[1,2-c]imidazol-1-yl]-N-thiazol-2-yl-acetamide] | 0.024 µM
6 | CCN1C[C@H]2CN(c3ccc(-c4cc(C(F)F)c5cn(C(C(=O)Nc6nccs6)c6ncn7c6C[C@@H](F)C7)nc5c4C)cc3)C[C@]2(F)C1 (stereo partly drawn) [Example 25, 2-[6-[4-[(3aR,6aS)-2-Ethyl-3a-fluoro-3,4,6,6a-tetrahydro-1H-pyrrolo[3,4-c]pyrrol-5-yl]phenyl]-4-(difluoromethyl)-7-methyl-indazol-2-yl]-2-[(6R)-6-fluoro-6,7-dihydro-5H-pyrrolo[1,2-c]imidazol-1-yl]-N-thiazol-2-yl-acetamide] | 0.029 µM
7 | CNCCc1ccc(-c2cc(C(F)F)c3cn(C(C(=O)Nc4nccs4)c4ncn5c4C[C@@H](F)C5)nc3c2C)cc1 (stereo partly drawn) [Example 3, 2-[4-(Difluoromethyl)-7-methyl-6-[4-[2-(methylamino)ethyl]phenyl]indazol-2-yl]-2-[(6R)-6-fluoro-6,7-dihydro-5H-pyrrolo[1,2-c]imidazol-1-yl]-N-thiazol-2-yl-acetamide Hydrochloride] | 0.018 µM
8 | Cc1c(-c2ccc(N3CCOC(CN(C)C)C3)cc2)cc(C(F)F)c2cn(C(C(=O)Nc3nccs3)c3ncn4c3C[C@@H](F)C4)nc12 (stereo partly drawn) [Example 26, 2-[4-(Difluoromethyl)-6-[4-[2-[(dimethylamino)methyl]morpholin-4-yl]phenyl]-7-methyl-indazol-2-yl]-2-[(6R)-6-fluoro-6,7-dihydro-5H-pyrrolo[1,2-c]imidazol-1-yl]-N-thiazol-2-yl-acetamide] | 0.078 µM
9 | Cc1c(-c2ccc(CCN3CCC(CO)CC3)cc2)cc(C(F)F)c2cn(C(C(=O)Nc3nccs3)c3ncn4c3C[C@@H](F)C4)nc12 (stereo partly drawn) [Example 9, 2-[4-(Difluoromethyl)-6-[4-[2-[4-(hydroxymethyl)-1-piperidyl]ethyl]phenyl]-7-methyl-indazol-2-yl]-2-[(6R)-6-fluoro-6,7-dihydro-5H-pyrrolo[1,2-c]imidazol-1-yl]-N-thiazol-2-yl-acetamide] | 0.027 µM
